According to patent EP1707622A1, “USE OF COMPOUNDS THAT REGULATE HDAC6 TUBULIN DEACETYLASE ACTIVITY IN THE PREPARATION OF PHARMACEUTICAL COMPOSITIONS, METHOD OF IDENTIFYING THE AFOR[…], SAID PHARMACEUTICAL COMPOUNDS AND APPLICATIONS THEREOF” (UNIVERSIDAD AUTONOMA DE MADRID CIUDAD UNIVERSITARIA …, priority 2004, dated 2005):
Where a SMILES comes first, the peptide text is derived from it. [ ]: non-standard residue; d: D form. Aoe = N[C@@H](CCCCCC(=O)[C@@H]1CO1)C(=O)O

Tests used:
J77 cells [1] = assay: CD3 clustering in the central region of the immunological synapse; assay type: cell-based, human; settings: for reversion of the prevention of CD3 clustering caused by HDAC6-GFP: J77 cells transfected with HDAC6-GFP, SEE-marked Raji cells, 30 minutes at 37°C, Figures 5A and B
J77 cells [2] = assay: Microtubule organizing centre (MTOC) translocation assay; assay type: cell-based, human; settings: for restoration of MTOC translocation in cells transfected with HDAC6-GFP: J77 cells transfected with HDAC6-GFP, SEE-pulsed Raji cells, 3 µM TSA, Figures 7A and B; for MTOC translocation: Figure 7B
Protocol: A 1:1 ratio of Raji cells and T cells transfected with HDAC6 were placed in contact for 15 minutes at 37°C in RPMI medium. The cell conjugates were then gently resuspended and plated on PLL-coated cover slips for 15 more minutes as previously described (Sancho et al., 2002). The cell conjugates were then fixed, permeabilized and stained for α-tubulin for the purpose of observation by immunofluorescence microscopy. The MTOC was considered to be redirected when it was in close proximity with the T cell plasma membrane, between the cell nucleus and the contact area with the antigen-presenting cell. At least 200 cell conjugates were counted in each experiment.

HDAC6 = target: T1, HDAC6 (Homo sapiens, UniProt Q9UBN7); settings: CD4+ T lymphocytes and J77 cells pre-treated for 30 minutes (3µM TSA or 5 mM sodium butyrate), SEE-pulsed Raji cells; Figure 3B
T1 sequence (Q9UBN7 1-1215): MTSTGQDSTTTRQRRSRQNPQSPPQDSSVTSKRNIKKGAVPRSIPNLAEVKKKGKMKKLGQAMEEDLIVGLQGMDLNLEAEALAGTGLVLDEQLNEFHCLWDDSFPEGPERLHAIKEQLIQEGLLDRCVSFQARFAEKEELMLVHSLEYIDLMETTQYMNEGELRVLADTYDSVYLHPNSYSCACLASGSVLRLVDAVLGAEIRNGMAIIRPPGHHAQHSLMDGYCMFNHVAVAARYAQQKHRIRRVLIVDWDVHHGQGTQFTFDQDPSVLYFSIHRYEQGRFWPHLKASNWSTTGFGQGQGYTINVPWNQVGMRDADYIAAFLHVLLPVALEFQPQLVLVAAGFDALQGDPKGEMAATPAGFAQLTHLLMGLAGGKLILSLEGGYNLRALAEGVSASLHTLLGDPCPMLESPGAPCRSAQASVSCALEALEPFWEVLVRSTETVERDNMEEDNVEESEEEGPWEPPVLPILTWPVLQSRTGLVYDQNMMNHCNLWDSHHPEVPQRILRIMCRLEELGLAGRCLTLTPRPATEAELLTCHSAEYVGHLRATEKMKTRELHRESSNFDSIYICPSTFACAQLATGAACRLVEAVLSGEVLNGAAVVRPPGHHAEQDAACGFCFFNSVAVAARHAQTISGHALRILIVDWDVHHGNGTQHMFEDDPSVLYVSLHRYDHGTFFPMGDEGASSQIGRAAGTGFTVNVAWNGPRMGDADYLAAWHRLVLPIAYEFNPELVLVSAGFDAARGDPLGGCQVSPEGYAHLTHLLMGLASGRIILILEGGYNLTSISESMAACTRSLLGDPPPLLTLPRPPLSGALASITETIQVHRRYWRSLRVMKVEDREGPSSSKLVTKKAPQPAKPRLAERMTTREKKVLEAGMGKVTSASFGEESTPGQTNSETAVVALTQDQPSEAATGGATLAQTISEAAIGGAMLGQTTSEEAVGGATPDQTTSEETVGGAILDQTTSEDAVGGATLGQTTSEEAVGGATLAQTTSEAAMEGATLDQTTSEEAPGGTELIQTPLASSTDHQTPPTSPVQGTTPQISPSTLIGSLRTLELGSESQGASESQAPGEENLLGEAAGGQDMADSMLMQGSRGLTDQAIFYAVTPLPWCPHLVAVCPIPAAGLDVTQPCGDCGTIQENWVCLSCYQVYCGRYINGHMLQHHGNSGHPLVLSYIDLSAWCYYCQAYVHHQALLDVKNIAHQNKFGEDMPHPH

J77 cells [3] = assay: LFA-1 organization in the immunological synapse peripheral ring; assay type: cell-based, human; settings: J77 cells with SEE-marked Raji cells, 30 minutes at 37°C; Figure 6 and data not shown
[4] = treatment effect in the quantitative analysis

SMILES | reversion of the prevention of CD3 clustering caused by HDAC6-GFP (J77 cells [1]) | restoration of MTOC translocation in cells transfected with HDAC6-GFP (J77 cells [2]) | MTOC translocation (J77 cells [2]; [4]) | acetylated tubulin staining in the contact site with antigen-presenting cells (HDAC6) | kinetics of CD3 clustering in the central region of the immunological synapse (J77 cells [1]; J77 cells pre-treated, Raji cells marked with 1µg/ml SEE, different times, Figure 5C) | CD3 clustering (J77 cells [1]; pretreated cells in contact with SEE-marked Raji cells, Figure 5B) | LFA-1 organization in the peripheral ring of the immunological synapse (J77 cells [3]) | kinetics of MTOC translocation (J77 cells [2]; cell conjugates between J77 and Raji cells, different times, Figure 7C) | MTOC translocation (J77 cells [2]; peripheral blood CD4+ lymphocytes with SEE-pulsed Raji cells)
CCCC(=O)[O-].[Na+] [sodium butyrate] | not | not | did not affect | weak |  |  |  |  | 
O=C1N[C@@H](Cc2ccccc2)C(=O)N2CCC[C@@H]2C(=O)N[C@@H](CCCCCC(=O)[C@@H]2CO2)C(=O)N[C@H]1Cc1ccccc1 [trapoxin B] (cyclo(FF[dP][Aoe])) | not | not | did not affect |  |  |  |  |  | 
CC(/C=C/C(=O)NO)=C\[C@@H](C)C(=O)c1ccc(N(C)C)cc1 [TSA, Trichostatin A] | reverted | restored normal translocation |  |  | accelerated | slight increase | well organized | accelerates | increases
